Experimental data reported in patent US20110008433A1, “Herbal Composition for Osteoarthritis” (priority 2009, published 2011).
Several values for one entry are separate records, joined by “and”; a condition that tells them apart may be missing. Equal entries are not always repeated.

Experiments:
[1] = Free radical scavenger, SOD mimetic activity (xanthine/xanthine oxidase, NBT); format: biochemical
Procedure: SO101C or vehicle was incubated with 0.12 mM xanthine, 6 mU xanthine oxidase, 27 μM nitroblue tetrazolium (NBT), 0.11 mM EDTA, 0.005% bovine serum albumin and Na2CO3 at pH 10.5 at 25° C. for 20 minutes. Conversion of xanthine to uric acid +O^−+NBT to formazan was then determined by measurement of absorbance at 595 nm and percent inhibition by superoxide dismutase or test compound was calculated.

[2] = target: T1, MMP-2 (Homo sapiens, UniProt P08253); test: Inhibition of MMP-2 activity in cell free system, gelatin zymography; format: biochemical; details: for MMP-2 activity (% of control): 24 hours
T1 construct: Serum free culture supernatant of confluent human dermal fibroblast was used as the source of MMP; endogenous in cells; host or cells: human dermal fibroblasts, serum-free culture supernatant
T1 sequence (P08253 110-660): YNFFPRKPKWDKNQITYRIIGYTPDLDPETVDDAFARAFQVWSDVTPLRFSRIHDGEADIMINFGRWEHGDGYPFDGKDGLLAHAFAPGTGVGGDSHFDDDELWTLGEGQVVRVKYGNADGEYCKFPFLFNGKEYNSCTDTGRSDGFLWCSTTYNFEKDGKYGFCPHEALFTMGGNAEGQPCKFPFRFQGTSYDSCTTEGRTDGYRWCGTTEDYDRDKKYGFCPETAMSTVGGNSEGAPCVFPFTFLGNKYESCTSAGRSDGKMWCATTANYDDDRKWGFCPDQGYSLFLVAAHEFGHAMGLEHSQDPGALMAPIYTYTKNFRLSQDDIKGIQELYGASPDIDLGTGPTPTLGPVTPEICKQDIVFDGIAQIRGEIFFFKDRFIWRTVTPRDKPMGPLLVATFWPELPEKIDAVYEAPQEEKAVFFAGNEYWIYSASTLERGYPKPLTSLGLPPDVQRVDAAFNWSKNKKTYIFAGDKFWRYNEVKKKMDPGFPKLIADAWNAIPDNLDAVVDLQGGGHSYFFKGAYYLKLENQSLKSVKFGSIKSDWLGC
Procedure: Serum free culture supernatant of confluent human dermal fibroblast was used as the source of MMP. Equal amount of the supernatant treated with equal volume of 2 fold concentration of SDS sample buffer without reducing agent was subjected to electrophoresis The samples were loaded into each well of a 10% SDS polyacrylamide gel containing 1 mg/ml of bovine gelatin (Sigma), and run at 20 mA in ice bath by a BioRad Mini Protean gel apparatus. After dye front reached the bottom of the gel, the gel was washed three times, 15 minutes each, with 2.5% Triton X-100. Then, the gel was sliced and incubated in developing buffer (50 mM Tris-HCl, pH7.6, 10 mM CaCl2, 50 mM NaCl, 0.05% Brij35) containing SO101C or EDTA or vehicle at 37° C. for 24 hours. The gel was stained with 0.1% Coomassie blue R250 (Sigma) in 40% methanol and 10% acetic acid, and destained in 30% methanol and 7% acetic acid. The enzyme digested clear bands were visualized in the blue background. The comparison of the enzymatic activities (clear band width) was analyzed by Image J (NIH).

[3] = tested on: human chondrocytes; test: Gene expression of chondrocytes (RT-PCR, normalized by β-Actin); format: cell-based; details: 2 weeks
Procedure: Reverse transcription was carried out at 37° C. for one hour by a programmable thermal controller (PTC-100, MJ Research, Inc., Watertown, Mass.). Reaction was terminated by raising the temperature to 93° C. for five minutes. PCR was performed in a thermal controller (PTC-100, MJ Research, Inc., Watertown, Mass.) with master mix (HotStarTaq DNA polymerase, Qiagen) at initial denaturation at 95° C. for 15 minutes, followed by 25 cycles of 94° C. for 1 minute, 58° C. for 40 seconds, and 72° C. for 40 seconds. The final cycle extended 72° C. for 10 minutes. The PCR products accompanied by 100 bp ET marker were separated by 1.2% agarose gel, stained with ethidium bromide and visualized under UV light. A Polaroid picture was taken by Foto/Phoresis UV documentation system (Fotodyne Inc.). Beta-actin expression under the same experimental conditions was used as a reference to normalize the expressions. The comparison of bend width of PCR was analyzed by Image J (NIH) after normalized by the expression of β-Actin.

[4] = tested on: Human bone marrow mesenchymal stem cells; test: ALP, collagen and GAGs synthesis in bone marrow mesenchymal stem cells in micromass culture (staining); format: cell-based; details: 1 mM; same experimental conditions
Procedure: Human bone marrow mesenchymal stem cells were obtained from patients receiving total joint replacement with consent. […] Ten μl of 1×10^7 cells/ml in C-DMEM was seeded into the center of each well of 48 multiwell culture dish (Nunc, Roskilde, Danmark). […] The media were changed twice a week for two weeks. At the end of the incubation, cells were fixed and stained for alkaline phosphatase (ALP), collagen or glycosaminoglycan using Naphthol AS-MX phosphate/Fast red, Sirius red, or Safranin O (Sigma), respectively.

[5] = tested on: chondrocytes; test: ALP, collagen and GAGs synthesis in chondrocytes in micromass culture (staining), without or with H2O2; format: cell-based, Human; details: 1 mM; same experimental conditions
Procedure: Human articular cartilage was obtained from patients who received total joint replacement with consent. The cartilage was digested with 1 mg/ml of Class 2 and Class 4 bacterial collagenase (Worthington Chemical, Freehold, N.J.) in DMEM containing 10% fetal calf serum (FCS) and 25 μg/ml Gentamicin (C-DMEM, Gibco, Grand Island, […]) at 37° C. overnight. […] Ten μl of 1×10^7 cells/ml in C-DMEM was seeded into the center of each well of 48 multiwell culture dish (Nunc, Roskilde, Danmark). […] The media were changed twice a week for two weeks. At the end of the incubation, the media were changed with fresh DMEM. Twenty-four hours later, the media were collected for MMP zymography study and cells were fixed and stained for alkaline phosphatase (ALP), collagen or glycosaminoglycan using Naphthol AS-MX phosphate/Fast red, Sirius red, or Safranin O (Sigma), respectively.

[6] = tested on: MMP-2; test: MMP-2 activities of treated chondrocyte culture supernatants, gelatin zymography; format: cell-based, Human; details: 1 mM; chondrocytes treated 2 weeks
Procedure: Ten μl of 1×10^7 cells/ml in C-DMEM was seeded into the center of each well of 48 multiwell culture dish (Nunc, Roskilde, Danmark). Two hours later, 250 μl of F12/DMEM containing 5% FCS, 6.25 μg/ml bovine insulin, 25 μg/ml ascorbic acid and 100 nM Dexamethasone (induction medium) with various concentrations of herbal composition or glucosamine (Sigma) was added. The media were changed twice a week for two weeks. At the end of the incubation, the media were changed with fresh DMEM.
Equal amount of protein of each culture medium was mixed with equal volume of 2 fold concentration of non-reducing SDS sample buffer, and incubated at room temperature for two hours for sample to denature. The samples were loaded into each well of a 10% SDS polyacrylamide gel containing 1 mg/ml of bovine gelatin (Sigma), and run at 20 mA in ice bath by a BioRad Mini Protean gel apparatus. After dye front reached the bottom of the gel, the gel was washed three times, 15 minutes each, with 2.5% Triton X-100. Then, the gel was renatured in developing buffer (50 mM Tris-HCl, pH7.6, 10 mM CaCl2, 50 mM NaCl, 0.05% Brij35) at 37° C. for 24 hours. The gel was stained with 0.1% Coomassie blue R250 (Sigma) in 40% methanol and 10% acetic acid, and destained in 30% methanol and 7% acetic acid. […] The comparison of the enzymatic activities (clear band width) was analyzed by Image J (NIH).

[7] = 2,2-diphenyl-1-picrylhydrazyl (DPPH) radical scavenging activity; details: for Absorbance at 517 nm, Sample 1 to 3: 30 minutes, single samples; for Absorbance at 517 nm, Average: control 0.963
Procedure: SO101C, vitamin C or vitamin E at various concentrations were incubated with 0.4 mM 2,2-diphenyl-1-picrylhydrazyl (DPPH, Sigma) in ethanol at room temperature for 30 minutes. Absorbance at 517 nm was measured by a spectrophotometer.

[8] = target: T2, MMP-3 (stromelysin-1, human recombinant catalytic domain) (Homo sapiens, UniProt P08254); test: Inhibition of MMP-3 enzyme activity, fluorogenic substrate; format: biochemical
T2 construct: MMP-3 (stromelysin-1, human recombinant catalytic domain from Calbiochem Cat. 444217); purchased Calbiochem 444217
Procedure: (§1) MMP-3 (stromelysin-1, human recombinant catalytic domain from Calbiochem Cat. 444217) was activated by p-aminophenylmercuric acetate for 60 minutes at 37° C. After preincubation of SO101C or vehicle with the activated enzyme (5 nM) in a reaction mixture containing 50 mM MOPS (pH 7.2), 10 mM CaCl2 and 10 μM ZnCl2 at 37° C. for 60 minutes, the reaction was initiated by addition of 4 μM (7-methoxycoumarin-4-yl)acetyl-Pro-Leu-Gly-Leu-N-3-(2,4-dinitrophenyl)-L-2,3-diaminopropinoyl-Ala-Arg-NH2 and incubated for a further 120 minutes at 37° C. Enzyme activity was determined spectrofluorometrically by measuring the formation of fluorescent (7-methoxycoumarin-4-yl)acetyl-Pro-Leu-Gly.

[9] = target: T3, MMP-13 (human recombinant) (Homo sapiens, UniProt P45452); test: Inhibition of MMP-13 enzyme activity, fluorogenic substrate; format: biochemical
T3 construct: purchased Calbiochem 444248; host or cells: Sf9
Procedure: as §1, with “MMP-13 proenzyme (human recombinant, expressed in Sf9 cell,” for “MMP-3 (stromelysin-1, human recombinant catalytic domain from”, “444248)” for “444217)”, “with the activated enzyme (0.5” for “(5”, “ZnCl2 for 60 minutes” for “ZnCl2”, “C.,” for “C. for 60 minutes,”

[10] = Anti-lipid peroxidation activity (malondialdehyde/thiobarbituric acid); format: biochemical, Mouse; details: for OD (A532-A600): control (0) 0.973
Procedure: Mouse brain KCl extract was used as the source of lipid. Brain extract was incubated with 1 mM FeSO4 and 0.1 mM vitamin C at 37° C. for 90 minutes. The malondialdehyde formed by peroxyl radical was reacted with thiobarbituric acid to form an adduct that absorbed at 532 nm after centrifugation to discard TCA precipitation.

T2 sequence (P08254 100-272 limits assumed): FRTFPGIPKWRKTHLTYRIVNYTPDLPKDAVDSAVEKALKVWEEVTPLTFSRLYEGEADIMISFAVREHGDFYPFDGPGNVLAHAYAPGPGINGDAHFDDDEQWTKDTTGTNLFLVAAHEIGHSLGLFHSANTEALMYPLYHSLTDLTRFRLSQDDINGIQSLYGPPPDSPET

With `O=C(O[C@@H]1Cc2c(O)cc(O)cc2O[C@@H]1c1ccc(O)c(O)c1)c1cc(O)c(O)c(O)c1` [(−)-Epicatechin gallate] the “Inhibition (%)” value ([1]; 6.1 μM) was 50% and the IC50 ([1]; read-out: Concentration giving 50 % inhibition (SOD mimetic assay)) was 6.1 µM.

In the case of `O=C(O)CN(CCN(CC(=O)O)CC(=O)O)CC(=O)O` [EDTA], the “inhibition of MMP-2 activity in cell free system (in words)” value [2] is reported as “showed dose dependent inhibition”, the “MMP-2 activity (% of control)” value ([2]; 0.1 mM) is reported as 46.6 % of control and the “MMP-2 activity (% of control)” value ([2]; 0.3 mM) is reported as 30.5 % of control.

With `N[C@H]1C(O)O[C@H](CO)[C@@H](O)[C@@H]1O` (stereo partly drawn) [Glucosamine, glucosamine] the “Gene expression (% of control) ALP” value ([3]; 1 mM) was 180.0 % of control, the “Gene expression (% of control) Aggrecan” value ([3]; 1 mM) was 133.7 % of control and the “Gene expression (% of control) Aggrecanase” value ([3]; 1 mM) was 130.9 % of control. The “Gene expression (% of control) BMP-2” value ([3]; 1 mM) was 173.4 % of control, the “Gene expression (% of control) Col II” value ([3]; 1 mM) was 162.4 % of control and the “Gene expression (% of control) TGF-β” value ([3]; 1 mM) was 120.9 % of control. For the same compound, the “expression of cartilage metabolism related genes (in words)” value ([3]; SO101C 0.01 mg/ml or glucosamine 1 mM) was “stimulated the expression of most of the cartilage metabolism related genes”, the “effect on ALP, collagen and GAGs in bone marrow mesenchymal stem cells (in words)” value [4] was “did not show significant effect” and the “effects on ALP, collagen and GAGs in chondrocytes (in words)” value [5] was “did not show significant effects”. For the same compound, the “MMP-2 activity (% of control) Active form (66K)” value [6] was 118.2 % of control and the “MMP-2 activity (% of control) Latent form (72K)” value [6] was 92.5 % of control.

With `O=C1O[C@H]([C@@H](O)CO)C(O)=C1O` [Vitamin C, vitamin C] the “Inhibition (%)” value ([7]; 0.01 mM) was 19.5%, the “Absorbance at 517 nm, Sample 1 to 3” value ([7]; 0.01 mM) was 0.753 and 0.790 and 0.781 and the “Absorbance at 517 nm, Average” value ([7]; 0.01 mM) was 0.775. For the same compound, the “Inhibition (%)” value ([7]; 0.03 mM) was 64.8%, the “Absorbance at 517 nm, Sample 1 to 3” value ([7]; 0.03 mM) was 0.321 and 0.362 and 0.333 and the “Absorbance at 517 nm, Average” value ([7]; 0.03 mM) was 0.339. The “Inhibition (%)” value ([7]; 0.1 mM) was 92.5%, the “Absorbance at 517 nm, Sample 1 to 3” value ([7]; 0.1 mM) was 0.068 and 0.079 and the “Absorbance at 517 nm, Average” value ([7]; 0.1 mM) was 0.072.

For “TIMP-1: reference agent in the MMP-3 and MMP-13 inhibition tables”, the “Inhibition (%)” value ([8]; 0.0076 μM) was 50%, the IC50 ([8]; read-out: Concentration giving 50 % inhibition of MMP-3) was 7.6 nM and the “Inhibition (%)” value ([9]; 0.0068 μM) was 50%. For the same compound, the IC50 ([9]; read-out: Concentration giving 50 % inhibition of MMP-13) was 6.8 nM.

For vitamin E, the “inhibition of lipid peroxidation (in words)” value [10] was “dose dependently inhibited lipid peroxidation”, the “OD (A532-A600)” value ([10]; 0.003 mM) was 0.844 and the “OD (A532-A600)” value ([10]; 0.01 mM) was 0.697. The “OD (A532-A600)” value ([10]; 0.03 mM) was 0.526, the “Inhibition (%)” value ([7]; 0.01 mM) was 30.6% and the “Absorbance at 517 nm, Sample 1 to 3” value ([7]; 0.01 mM) was 0.647 and 0.688 and 0.668. For the same compound, the “Absorbance at 517 nm, Average” value ([7]; 0.01 mM) was 0.668, the “Inhibition (%)” value ([7]; 0.03 mM) was 76.9% and the “Absorbance at 517 nm, Sample 1 to 3” value ([7]; 0.03 mM) was 0.213 and 0.208 and 0.245. For the same compound, the “Absorbance at 517 nm, Average” value ([7]; 0.03 mM) was 0.222, the “Inhibition (%)” value ([7]; 0.1 mM) was 77.5% and the “Absorbance at 517 nm, Sample 1 to 3” value ([7]; 0.1 mM) was 0.204 and 0.241 and 0.205. For the same compound, the “Absorbance at 517 nm, Average” value ([7]; 0.1 mM) was 0.217.
